Test results from patent US9242929B2, “Compounds as diacylglycerol acyltransferase inhibitors” (GlaxoSmithKline Intellectual Property (No.2) Limited, priority 2011, dated 2016).

The molecules below were run against T1, Human DGAT1 (Homo sapiens, UniProt O75907) (assay: human DGAT1 fluorescence (CPM) assay, inhibition of CoA product formation). Conditions: human DGAT1 fluorescene (CPM) assay; microsomes from Sf9 insect cells; read-out: hDGAT IC50.
T1 construct: made in house; host or cells: Sf9 insect cells (baculovirus), microsomes
T1 sequence (O75907 1-488): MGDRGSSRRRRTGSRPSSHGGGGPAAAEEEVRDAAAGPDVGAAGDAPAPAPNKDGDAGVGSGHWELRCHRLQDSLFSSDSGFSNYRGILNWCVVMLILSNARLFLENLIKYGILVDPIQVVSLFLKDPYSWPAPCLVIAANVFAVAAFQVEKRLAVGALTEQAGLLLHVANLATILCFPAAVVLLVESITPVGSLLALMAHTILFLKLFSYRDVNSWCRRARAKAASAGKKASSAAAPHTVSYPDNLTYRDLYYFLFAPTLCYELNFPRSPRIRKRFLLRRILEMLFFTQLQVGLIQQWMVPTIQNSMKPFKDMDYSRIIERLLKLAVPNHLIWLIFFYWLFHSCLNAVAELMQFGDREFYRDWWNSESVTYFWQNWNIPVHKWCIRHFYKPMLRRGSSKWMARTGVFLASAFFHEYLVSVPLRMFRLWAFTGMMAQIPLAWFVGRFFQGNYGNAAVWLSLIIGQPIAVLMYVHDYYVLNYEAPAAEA
Format: biochemical
Description: Human DGAT1 was expressed in Sf9 insect cells using a baculovirus expression system. Microsomes were prepared and used as enzyme for in vitro inhibition testing in either of two formats measuring production of coenzyme A or tridecanoylglycerol product, respectively. All steps were performed at 21-23° C. All data for DGAT1 inhibition by test compounds were collected under conditions where product formation was linear with reaction time.
An equal volume (10 uL) of 3× enzyme in buffer was added and the components incubated for 30 minutes pre-reaction incubation to allow enzyme and test compounds to attain binding equilibrium. […] Some assays were performed with inclusion of didecanoylglycerol in the pre-reaction incubation of test compound and enzyme. DGAT reactions (30 uL) were initiated upon addition of 10 uL of 3× substrate solution. Final reaction conditions consisted of 20 mM HEPES pH 7.5, 2 mM MgCl2, 1 mM CHAPS, 50 uM didecanoylglycerol, 3 uM decanoyl-CoA, 1 ug/mL microsomal protein, and 1% DMSO. Following a 60 minute reaction incubation, reactions were stopped and CoA product derivatized with 30 uL of buffer containing 10 uM {4-[4-(4-amino-7,7-dimethyl-7H-pyrimido[4,5-b][1,4]oxazin-6-yl)phenyl]cyclohexyl}acetic acid and 50 uM 7-diethylamino-3-(4′-maleimidylphenyl)-4-methylcoumarin (CPM). […] IC50s were fitted using GraphPad Prism to a sigmoidal dose response.
For CC[C@@]1(CC(=O)O)CCc2cc(-c3ccc(NC(=O)Nc4cccc(C(F)(F)F)c4)cc3)ccc2[C@@H]1O (relative stereo) [Example 173, rel-2-[(1R,2S)-2-ethyl-1-hydroxy-6-[4-({[3-(trifluoromethyl)phenyl]carbamoyl}amino)phenyl]-1,2,3,4-tetrahydronaphthalen-2-yl]acetic acid], the IC50 was 10.8 nM.
In the case of CC1(CC(=O)O)CCc2cc(-c3ccc(NC(=O)Nc4cccc(Cl)c4)cc3Cl)ccc2C1=O (single isomer, unassigned) [Example 212, 2-(6-(2-chloro-4-(3-(3-chlorophenyl)ureido)phenyl)-2-methyl-1-oxo-1,2,3,4-tetrahydronaphthalen-2-yl)acetic acid], the IC50 is reported as 32.8 nM.
Work on CCC1(CC(=O)O)CCc2cc(-c3ccc(NC(=O)Nc4cccc(Cl)c4)cc3Cl)ccc2C1=O (single isomer, unassigned) [Example 213, 2-(6-(2-Chloro-4-(3-(3-chlorophenyl)ureido)phenyl)-2-ethyl-1-oxo-1,2,3,4-tetrahydronaphthalen-2-yl)acetic acid] yielded an IC50 of 5.9 nM.
For O=C(O)CC1(CC(F)(F)F)CCc2cc(-c3ccc(NC(=O)Nc4cccc(Cl)c4)cc3)ccc2C1=O (single isomer, unassigned) [Example 214, 2-(6-(4-(3-(3-Chlorophenyl)ureido)phenyl)-1-oxo-2-(2,2,2-trifluoroethyl)-1,2,3,4-tetrahydronaphthalen-2-yl)acetic acid], the IC50 was 0.6 nM.
For O=C(O)CC1(CC(F)(F)F)CCc2cc(-c3cnc(NC(=O)NC4CCCCC4)cn3)ccc2C1=O (single isomer, unassigned) [Example 216, 2-(6-(5-(3-cyclohexylureido)pyrazin-2-yl)-1-oxo-2-(2,2,2-trifluoroethyl)-1,2,3,4-tetrahydronaphthalen-2-yl)acetic acid], the IC50 was 2.7 nM.
COC1(CC(=O)O)CCc2cc(-c3ccc(NC(=O)Nc4cccc(C(F)(F)F)c4)cc3)ccc2C1=O (single isomer, unassigned) [Example 228] showed an IC50 of 6.9 nM.
O=C(O)CN1CCc2cc(-c3ccc(NC(=O)Nc4cccc(C(F)(F)F)c4)cc3)ccc2C1=O [Example 1, 2-{1-oxo-6-[4-({[3-(trifluoromethyl)phenyl]carbamoyl}amino)phenyl]-1,2,3,4-tetrahydroisoquinolin-2-yl}acetic acid] showed an IC50 of 1880 nM.
O=C(O)CC1CCc2cc(-c3ccc(NC(=O)Nc4ccc(F)c(C(F)(F)F)c4)cc3)ccc2C1 (stereo not shown) [Example 20] gave an IC50 of 586 nM.
O=C(O)CC1(O)CCc2cc(-c3ccc(NC(=O)Nc4cccc(C(F)(F)F)c4)cc3)ccc2C1 (stereo not shown) [Example 40, 2-{2-hydroxy-6-[4-({[3-(trifluoromethyl)phenyl]carbamoyl}amino)phenyl]-1,2,3,4-tetrahydronaphthalen-2-yl}acetic acid] showed an IC50 of 357 nM.
CCC1(CC(=O)O)Cc2cc(-c3ccc(NC(=O)Nc4cccc(C(F)(F)F)c4)cc3)ccc2C1=O (stereo not shown) [Example 42, 2-{2-ethyl-1-oxo-5-[4-({[3-(trifluoromethyl)phenyl]carbamoyl}amino)phenyl]-2,3-dihydro-1H-inden-2-yl}acetic acid] was tested, and the IC50 was 60 nM.
Molecule O=C(O)CC1CCc2cc(-c3ccc(NC(=O)Nc4cccc(C(F)(F)F)c4)cc3)ccc2C1=O (stereo not shown) [Example 47, 2-{1-oxo-6-[4-({[3-(trifluoromethyl)phenyl]carbamoyl}amino)phenyl]-1,2,3,4-tetrahydronaphthalen-2-yl}acetic acid] has an IC50 of 181 nM.
O=C(O)CC1CCc2cc(-c3ccc(NC(=O)Nc4cccc(C(F)(F)F)c4)cc3)ccc2C1O (stereo not shown) [Example 68, 2-{1-hydroxy-6-[4-({[3-(trifluoromethyl)phenyl]carbamoyl}amino)phenyl]-1,2,3,4-tetrahydronaphthalen-2-yl}acetic acid] was tested, and the IC50 was 503 nM.
For O=C(O)CCC1CCc2cc(-c3ccc(NC(=O)Nc4cccc(C(F)(F)F)c4)cc3)ccc2C1=O (stereo not shown) [Example 69, 3-{1-oxo-6-[4-({[3-(trifluoromethyl)phenyl]carbamoyl}amino)phenyl]-1,2,3,4-tetrahydronaphthalen-2-yl}propanoic acid], the IC50 was 114 nM.
